Experiments:
[1] = test system: A2780 ovarian xenograft tumors; test: A2780 ovarian xenograft tumor model; format: in vivo, mouse; conditions: oral 60 mg/kg/day
Procedure: FIG. 12. Various Xenograft tumors stained with CD34 antibodies (brown) to identify endothelium. The B16 mouse melanoma cell line was established as a syngeneic tumor in an immunocompetent mouse model and the human Caki renal cancer and A2780 ovarian xenograft tumors in immunocompromised mice. The treated mice were gavaged with 60 mg/kg/day SHetA2 and the untreated were gavaged with solvent only. The tumors were excised and sections were stained with the anti-CD34 antibody to detect endothelial cells (brown stain).
Survival was the primary endpoint of those studies. […] Tumor growth was the primary endpoint of the renal cancer study.

[2] = test system: C33a human cervical cell line; test: In vitro cytotoxicity (SRB growth inhibition) assay, C33a; format: cell-based; design: dose or concentration left out as unconfirmed; conditions: 72 h
Procedure: (§1) The SHetA2, SHetA3, SHetA4, SHet50 and 9-cis-RA compounds were evaluated in 4 cervical carcinoma cell lines. The SiHa, CC-1 and C33a human cervical cell lines were maintained in Minimal Essential Media (MEM) containing Earle's salts and L-glutamine supplemented with nonessential amino acids, 1% sodium pyruvate, 10% fetal bovine serum (FBS) and antibiotic/antimycotic. The HT-3 cervical carcinoma cell line was cultured in McCoy's 5a medium supplemented with 10% FBS and antibiotic/antimycotic. Cells were inoculated into 96 well microtiter plates at densities of 1000 cells/well and incubated for 24 h prior to addition of drugs. Drugs were dissolved in dimethyl sulfoxide (DMSO) and diluted in complete medium, prior to addition to triplicate culture wells to achieve final concentrations of […]. Following drug addition, the plates were incubated for 72 h. The assay was terminated by the addition of cold TCA and the cells were stained with 0.4% sulforhodamine B (SRB) in 1% acetic acid. Bound stain was subsequently solubilized with 10 mM trizma base, and the absorbance was read on an automated plate reader at a wavelength of 560 nm. Growth inhibition was determined by dividing the average Optical Density (OD) of the triplicated treated cultures by the average OD of the triplicate control cultures treated with DMSO solvent only. This ratio was converted into a percentage by multiplying by 100. The potency (concentration required to induce half of the maximal activity—GI50) were derived from dose-response graphs generated with results from 3 to 5 individual experiments using GraphPad Software.

[3] = test system: EAhy.926 endothelial cells; test: Endothelial tube branching on matrigel; format: cell-based; conditions: various concentrations (1, 5, 10 μM); scored after twenty hours
Description: The graph on the left provides quantification of the endothelial branches for each treatment dose.

[4] = test system: SW962 vulvar carcinoma cultures; test: Annexin-V-Fluos apoptosis assay (flow cytometry); format: cell-based; conditions: 10 μM; same concentration range as 4-HPR
Procedure: SW962 vulvar carcinoma cultures were treated with 10 μM of the indicated retinoid or the same volume of solvent. At the specified times, the cultures were labeled with Annexin-V-Fluos and propidium iodide (PI), and the number of apoptotic cells was quantified using dual-laser flow cytometric analysis.

[5] = test system: NF-κB; test: NF-κB luciferase reporter assay in A2780 cultures; format: cell-based; conditions: 10 μM SHetA2, inhibition increased over 4 hours
Procedure: FIG. 15. SHetA2 Inhibition of NF-κB. A2780 cultures were transfected with the NF-κB reporter and treated with 10 μM SHetA2 for the indicated times. Cell lysates were prepared and evaluated for luciferase activity which was normalized for protein concentration.
Because both TP and TSP4 have DNA binding sites for the NFκB transcription factor in their promoter, the ability of SHetA2 to inhibit activity of NF-κB in ovarian cancer cultures was tested using a luciferase reporter plasmid driven by NF-κB sites in the promoter. […] Inhibition increased over the 4 hour evaluation time (FIG. 15).

[6] = test system: dorsal skin of female Skh hairless mice; test: Topical irritancy; format: in vivo; conditions: mouse, in vivo
Procedure: Female Skh hairless mice, 6-8 weeks old, were treated topically on the dorsal skin for 4 days over a 2-log concentration dose range with various compounds. Retinoic acid receptor-Hets were evaluated in A, while retinoic acid receptor-independent Flex-Hets were evaluated in B. Daily flaking and abrasion scores were combined to calculate a single cutaneous toxicity score for each mouse. Each treatment group consisted of 4 mice, and group averages were used to plot cutaneous toxicity against doses of the compounds.
Topical irritancy was evaluated according to published procedures (29). Briefly, female Skh hairless mice, 6-8 weeks old, were treated topically on the dorsal skin for 4 days over a 2-log concentration dose range with various compounds. Daily flaking and abrasion scores were combined to calculate a single cutaneous toxicity score for each mouse. Each treatment group consists of 4 mice, and group averages are used to plot cutaneous toxicity against dose of the retinoid compound.

[7] = test system: SiHa human cervical cell line; test: In vitro cytotoxicity (SRB growth inhibition) assay, SiHa; format: cell-based; design: dose or concentration left out as unconfirmed; conditions: 72 h
Procedure: as §1

[8] = Alanine aminotransferase (ALT) activity in plasma of mice; format: in vivo, mouse; conditions: end of treatment, 10 mg/kg/day by gavage
Procedure: At the end of the treatment period, blood was drawn from each animal. Plasma was separated by centrifugation and stored at −70° C. The activity of ALT was determined in aliquots of plasma by standard spectrophotometric enzymatic techniques which are based on the reduction of pyruvate by lactate dehydrogenase (28). The method measures NADH disappearance with time of incubation at 37° C. The activities are expressed as mm/L/min. Two different amounts of plasma were used in each assay to assure measurement of the maximum rate.

[9] = test system: Thrombospondin 4 (TSP4); test: Real time rt-PCR and Western blot validation, TSP-4; format: cell-based; conditions: 1 μM (rt-PCR, OVCAR-3) and 10 μM (Western blot, A2780)
Procedure: FIG. 13. Real Time rt-PCR validation of SHetA2 inhibition of TP and TSP-1 mRNA Expression. OVCAR-3 cultures were treated with 1 μM SHetA2 for the indicated period of time prior to harvesting the cells and isolating RNA. cDNA was prepared and used in real time rt-PCR reactions. Real time rt-PCR was performed on CDNA from cultures various treatment times.
FIG. 14. Western blot validation of SHetA2 inhibition of TP and TSP4 protein expression. A2780 ovarian cancer cells were treated with 10 μM SHetA2 for the indicated amounts of time. Equal amounts of whole cell protein extracts were evaluated by Western blot.

SMILES: CC1(C)CC(C)(C)c2cc(NC(=S)Nc3ccc([N+](=O)[O-])cc3)ccc2S1 [SHetA2]
- survival ([1]; ovarian cancer model): improved survival
- development of blood vessels inside tumors (anti-CD34 staining) ([1]; ovarian): inhibited the development of blood vessels
- Efficacy: percent growth inhibition relative to the untreated control [2]: 87%
- endothelial tube branching (in vitro angiogenesis) [3]: dose-responsive inhibition of angiogenesis
- induction of apoptosis (Annexin-V-Flous assay) [4]: induced apoptosis
- time to inhibition of NF-κB reporter activity [5]: ≤ 30 min
- topical irritancy (cutaneous toxicity score) [6]: did not induce topical irritancy
- Efficacy: percent growth inhibition relative to the untreated control [7]: 68%
- ALT Activity [8]: 118.5 ± 153.4 mm/liter/min
- expression of TSP-4 at the RNA and protein levels [9]: inhibit expression

From patent publication US20060281806A1, “Treatment and inhibition of disease conditions using flexible heteroarotinoids” (priority 2005, published 2006)
